Assay results as given in patent US20260250312A1, “ANTIBACTERIAL COMPOUNDS ELIMINATING DORMANT BACTERIAL CELLS” (UNIVERSITÉ D'AIX-MARSEILLE, priority 2022, published 2026).
Where “and” joins values, the source holds several entries; their conditions need not be identical. Identical values can stand only once. Like-named read-outs stand apart in the source and are kept apart here.

Tests used:
[1] = system: Escherichia coli (ATCC28922); test: Microdilution MIC assay (CLSI-based), E. coli; format: cell-based; conditions: Escherichia coli, ATCC28922, 20 h, 20 hours incubation at 35-37° C., MHB; read-out: Minimum inhibitory concentration E. coli ATCC28922
In short: (§1)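 Broth microdilution per modified CLSI guidelines in Mueller Hinton broth, 200 μL, inoculum ca. 5×10^5 CFU/mL; compounds tested as salts, twofold dilutions from 0.2 mg/mL, in triplicate. MIC determined from OD at 620 nm after incubation.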

[2] = system: E. coli non-persister cells; test: Anti-persister activity test, non-persister cells; format: cell-based, Escherichia coli; conditions: Escherichia coli, 4 h, read-out: Non-persister cell survival rate 96 h, concentration used 62.5 μM, 4 hours treatment
Protocol: (§2) Anti-persister activity test: Escherichia coli (E. coli) persister cells were generated and isolated as described by MARQUES, C. N. H. et al. (Applied and Environmental Microbiology 2014, Vol. 80, No. 22, pp. 6976-6991). E. coli persister cells were compared to E. coli non-persister cells. 1 mL persister or non-persister bacteria culture was added in a 1.5 mL microtube with each of the compounds to be tested or ciprofloxacin as a […], and incubated at 37° C. with 160 rpm shaking for 4 hours. After 4 hours treatment with the compounds, the microtubes were centrifuged at 3,500g for 5 minutes and the pellets were resuspended in 1 mL of fresh drug free RM broth (10 g/L M9 salt, 2% casamino acids, 1 mM MgCl2, 1% glycerol). Resuspended bacteria were then plated over LB agar plates and incubated at 37° C. Bacterial colonies were enumerated after 24, 48 and 96 hours to estimate the survival rate.

[3] = system: Escherichia coli (E. coli) persister cells; test: Anti-persister activity test, persister cells; format: cell-based; conditions: for anti-persister activity (in words): E. coli persister cells, Table 8 conditions; for viability at 62.5 µM: Escherichia coli, 4 h, read-out: Persister cell survival rate 96 h, concentration used 62.5 μM, 4 hours treatment
Protocol: as §2

CHO-K1 cells = test: WST1 cytotoxicity test; format: cell-based, Chinese hamster; conditions: for IC50: Cricetulus griseus
In short: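 CHO-K1 cells pre-cultured 24 h, then exposed 24 h at 37 °C to increasing compound concentrations. Viability read as WST-1 formazan absorbance at 450 nm after 20 min; dose-response fitted by nonlinear regression.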

[4] = system: Pseudomonas aeruginosa (ATCC27853); test: Microdilution MIC assay (CLSI-based), P. aeruginosa; format: cell-based; conditions: Pseudomonas aeruginosa, ATCC27853, 20 h, 20 hours incubation at 35-37° C., MHB; read-out: Minimum inhibitory concentration P. aeruginosa ATCC27853
In short: as §1

[5] = system: Staphylococcus aureus (ATCC25923); test: Microdilution MIC assay (CLSI-based), S. aureus; format: cell-based; conditions: Staphylococcus aureus, ATCC25923, 20 h, 20 hours incubation at 35-37° C., MHB; read-out: Minimum inhibitory concentration S. aureus ATCC25923
In short: as §1

[6] = system: Enterococcus faecalis (ATCC29212); test: Microdilution MIC assay (CLSI-based), E. faecalis; format: cell-based; conditions: Enterococcus faecalis, ATCC29212, 20 h, 20 hours incubation at 35-37° C., MHB; read-out: Minimum inhibitory concentration E. faecalis ATCC29212
In short: as §1

[7] = CHO-K1, 24 h, WST1, 24 hours at 37° C., read-out: IC50 CHO
[8] = CHO-K1, WST1, as printed in Table 8, read-out: Toxicity IC50 CHO

Row | SMILES | MIC [1] | viability at 62.5 µM [2] [%] | anti-persister activity (in words) [3] | viability at 62.5 µM [3] [%] | toxicity results (in words) (CHO-K1 cells) | IC50 (CHO-K1 cells; [7]) | IC50 (CHO-K1 cells; [8]) [µM] | MIC [4] | MIC [5] | MIC [6]
1 | COC(=O)[C@H](Cc1ccc(O)cc1)NC(=O)CC[C@@H](C)[C@H]1CCC2C3C(CC[C@@]21C)[C@@]1(C)CC[C@H](NCCCNCCCCNCCCN)C[C@H]1C[C@H]3O (stereo partly drawn) [Compound S039, methyl ((4R)-4-((3S,5S,7R,10S,13R,17R)-3-((3-((4-((3-aminopropyl)amino)butyl)amino)propyl)amino)-7-hydroxy-10,13-dimethylhexadecahydro-1H-cyclopenta[a]phenanthren-17-yl)pentanoyl)-L-tyrosinate] | 6.25 µM and 4 µg/mL | 2.7 | very potent anti-persister activity | 0 | good toxicity results | 60 µM and 45.3 µg/mL | 60 | 6.25 µM and 4 µg/mL | 6.25 µM and 4 µg/mL | 12.5 µM and 8 µg/mL
2 | CC[C@@H](C)[C@H](NC(=O)CC[C@@H](C)[C@H]1CC[C@H]2[C@@H]3[C@H](O)C[C@@H]4C[C@@H](NCCCNCCCCNCCCN)CC[C@]4(C)[C@H]3CC[C@]12C)C(=O)OC [Compound S044, methyl (2S,3R)-2-((4R)-4-((3S,5S,7R,10S,13R,17R)-3-((3-((4-((3-aminopropyl)amino)butyl)amino)propyl)amino)-7-hydroxy-10,13-dimethylhexadecahydro-1H-cyclopenta[a]phenanthren-17-yl)pentanamido)-3-methylpentanoate] | 6.25 µM and 4 µg/mL | 0 | both anti-persister and anti-bacterial activities | 0 | good toxicity results | 52.4 µM and 36.9 µg/mL | 52.4 | 12.5 µM and 8 µg/mL | 6.25 µM and 4 µg/mL | 6.25 µM and 4 µg/mL
